According to patent US8084502B2, “Use of agmatine for protection of retinal ganglion cells” (priority 2007, dated 2011):
Where a SMILES comes first, the peptide text is derived from it. The star is where a group is joined. Cbz = O=C(OCc1ccccc1)*; CH2F = FC*

Key:
caspase-3 = experiment: Caspase-3 activity (colorimetric, Ac-DEVD-pNA cleavage) after hypoxia; type: cell-based, rat; details: hypoxia 24 hours; 100 μM of agmatine or 50 μM of Z-VAD-FMK
Experimental: The RGC-5 cell line, which is a RGC line developed from post-natal Sprague-Dawley rats, was grown in modified Dulbecco's Modified Eagle's Medium (DMEM; Gibco) supplemented with 10% of heat inactivated fetal bovine serum (Gibco) and 100 U/mL of penicillin and 100 μg/mL of streptomycin (Gibco). The cells were passaged every 2 to 3 days, and the cultures incubated at 37° C. in 5% of CO2 and air. […] For all experiments, cells were used at an 80% confluence. Cultures were transferred into a closed hypoxic chamber (Form a Scientific Co.) in which oxygen level (5% of O2, 5% of CO2, 90% of N2) and temperature (37° C.) were controlled. After washing twice with deoxygenated serum-free DMEM, cells were maintained in the hypoxic chamber. Control cells were not exposed to hypoxia. Agmatine or BDNF were added to the culture medium at the start of injury as indicated. Caspase-3 activity was measured using the CaspACE™ colorimetric assay system (Promega, Cat no. G7220) according to the manufacturer's instructions. Briefly, cells were harvested and resuspended in cell lysis buffer (10^8 cells/mL). […] After incubating at 37° C. for 4 hours, absorbance was measured using a microplate reader at 405 nm. Absorbance of each sample was determined by subtraction of the mean absorbance of the blank from that of each sample.

RGC-5 = experiment: LDH assay, TNF-α-induced cell death; type: cell-based, rat
Experimental: The RGC-5 cell line, which is an RGC line developed from post-natal Sprague-Dawley rats, was grown in modified DMEM (Gibco) supplemented with 10% of heat inactivated fetal bovine serum (Gibco) and 100 U/mL of penicillin and 100 μg/mL of streptomycin (Gibco). The cells were passaged every 2 to 3 days and incubated at 37° C. in 5% of CO2 and air. At cultivation, the cells had the same morphology. For all experiments, cells were used at 80% of confluence.
After washing twice with PBS, cells were cultured in serum-free DMEM and treated with either 10 or 50 ng/mL of recombinant rat TNF-α (Chemicon) for up to 48 hours. The control cells were not exposed to TNF-α. 100 μM of agmatine was added to the culture medium at the start of injury as indicated.
Cell viability was quantified by measuring the amounts of LDH released from the injured cells after TNF-α administration. LDH release is expressed as a value relative to the value of 100, which is the maximum LDH release that occurs after freezing each culture at −70° C. overnight and then rapidly thawing, thus inducing nearly complete cell damage. All experiments were performed in at least quadruplicate, and repeated at least eight times using cell cultures derived from different platings.

COC(=O)C[C@H](NC(=O)[C@H](C)NC(=O)[C@@H](NC(=O)OCc1ccccc1)C(C)C)C(=O)CF [Z-VAD-FMK, reference compound] (Cbz-Val-Ala-Asp(OMe)-CH2F)
hypoxia-induced caspase-3 activity (caspase-3): equally suppressed

TNF-α
LDH release (RGC-5; 10 ng/mL of TNF-α alone, 24 hours): 7.04±3.26%
LDH release (RGC-5; 10 ng/mL of TNF-α alone, 48 hours): 10.16±1.77%
LDH release (RGC-5; 50 ng/mL of TNF-α alone, 24 hours): 13.41±6.20%
LDH release (RGC-5; 50 ng/mL of TNF-α alone, 48 hours): 17.00±1.92%
